In PMC11055700 (Chemicke Zvesti, 2024):
Read-outs that look alike come from different tables or passages of the source.

Columns and labels:
[1] = biological target: T1, SARS-CoV-2 Spike-RBD (lambda) / ACE2 (Homo sapiens, UniProt Q9BYF1); experiment: biochemical; format: binding
T1 construct: a SARS-CoV-2 RBD protein containing a C-terminal His tag; a full-length ACE2 peptide with a C-terminal Fc tag; purchased Sino Biological

[2] = biological target: T2, SARS-CoV-2 Spike-RBD (ancestral, WT) / ACE2 (Homo sapiens, UniProt Q9BYF1); experiment: biochemical; format: binding
T2 construct: a SARS-CoV-2 RBD protein containing a C-terminal His tag; a full-length ACE2 peptide with a C-terminal Fc tag; purchased Sino Biological
T2 sequence (Q9BYF1 18-740): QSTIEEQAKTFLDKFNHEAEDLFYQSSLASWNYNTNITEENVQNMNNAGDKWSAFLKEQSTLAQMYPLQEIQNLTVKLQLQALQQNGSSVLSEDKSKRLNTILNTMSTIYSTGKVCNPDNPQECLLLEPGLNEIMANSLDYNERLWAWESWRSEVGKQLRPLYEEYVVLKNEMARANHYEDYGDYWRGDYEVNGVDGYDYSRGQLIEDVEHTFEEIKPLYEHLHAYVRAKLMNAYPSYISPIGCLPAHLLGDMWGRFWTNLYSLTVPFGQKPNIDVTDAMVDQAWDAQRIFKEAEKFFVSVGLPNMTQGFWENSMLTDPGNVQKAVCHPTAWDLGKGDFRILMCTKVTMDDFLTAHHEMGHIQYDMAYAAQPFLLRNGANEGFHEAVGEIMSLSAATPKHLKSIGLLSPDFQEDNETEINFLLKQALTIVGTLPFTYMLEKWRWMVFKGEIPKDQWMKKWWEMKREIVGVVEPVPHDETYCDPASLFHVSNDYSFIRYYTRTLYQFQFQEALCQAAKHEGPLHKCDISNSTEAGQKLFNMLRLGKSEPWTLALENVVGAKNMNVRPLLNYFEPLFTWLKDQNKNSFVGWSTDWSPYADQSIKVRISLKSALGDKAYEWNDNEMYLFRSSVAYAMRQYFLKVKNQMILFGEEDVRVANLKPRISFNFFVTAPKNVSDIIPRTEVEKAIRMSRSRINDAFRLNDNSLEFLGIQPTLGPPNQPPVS

T1 sequence (Q9BYF1 18-740): as above

Compound	fold difference in IC50 for any variant versus WT RBD [1] [fold]	IC50 ([2]; IC50 spike RBD/ACE2 binding, WT RBD sequence) [nM]	IC50 ([2]; read-out: IC50 spike RBD/ACE2 binding, WT RBD sequence) [nM]
O=C1Nc2ccc(Cl)cc2C1=NNc1ccc([N+](=O)[O-])cc1[N+](=O)[O-] [H2L, 5-chloro-3-(2-(2,4-dinitrophenyl)hydrazono)indolin-2-one]	≤ 1.4	448	
REGN10933			1.3
